Laboratory results as given in patent US20180085356A1, “METHOD OF TREATING DISEASE CHARACTERISED BY PROTEIN AGGREGATE DEPOSITION IN NEURONAL CELLS” (CHRONOS THERAPEUTICS LIMITED, priority 2013, published 2018).

Assays:
[1] = tested on: FET3, SOD1, SOD2, COX9 transcripts; assay: Yeast transcript analysis by RT-qPCR; format: cell-based, Saccharomyces cerevisiae; conditions: 10 μg/ml tacrolimus, cultures aged 3 days, normalised to U4 snRNA
Procedure: A pre-culture was diluted 1/100 into synthetic complete medium and tacrolimus was added to a final concentration of 10 μg/ml. (An equivalent volume of DMSO was added to a parallel culture as a control.) The cultures were then allowed to age for 3 days, before RNA extraction and transcript analysis by reverse transcription-qPCR (RT-qPCR). (Transcript levels are normalised to that of the U4 snRNA.)

[2] = tested on: primary motor neuron (MN) cultures generated from rat spinal cord; assay: Motor neuron culture with Aβ1-42 insult: neurite network and survival (MAP-2 staining); format: cell-based; conditions: 24 hours after 20 μM Aβ1-42 insult, treated 1 hour before
Procedure: (§1) Primary motor neuron (MN) cultures generated from rat spinal cord were treated with 20 μM amyloid beta 1-42 peptide (Aβ1-42). […] This model was used to determine the effect of tacrolimus on TDP-43 toxicity in motor neurons. […] After permeabilisation with 0.1% saponin, one group of cells was incubated for 2 hours with a) mouse monoclonal anti-microtubule-associated-protein 2 (MAP-2) antibody, and b) rabbit polyclonal anti-TDP-43 antibody. The anti-MAP-2 antibody was used to determine MN survival (number of stained MN) and MN neurite length. The anti-TDP-43 antibody was used to examine extranuclear TDP-43: the area of extranuclear TDP-43 staining per MN was calculated by normalising to the number of MAP-2 positive cells.

TDP-43 = assay: Motor neuron culture with Aβ1-42 insult: extranuclear TDP-43 accumulation; format: cell-based, rat
Procedure: as §1

rat microglia = assay: Microglial cell culture model of inflammation (LPS challenge); format: cell-based; conditions: 100 ng/ml LPS overnight
Procedure: To investigate the effect of tacrolimus on microglial function, rat microglia were isolated as follows. A primary glial co-culture was isolated from P2 Sprague Dawley rat pups. The cells were cultured until confluency and then the microglia were isolated from the confluent glial cells through mechanical shaking. The isolated microglial cells were then subjected to inflammatory challenge by overnight exposure to 100 ng/ml lipopolysaccharide (LPS), in the presence or absence of tacrolimus. Glial cell activity was monitored by determining cell viability (Cell Counting Kit-8), the presence of reactive oxygen species (by quantitative fluorescence measurement in the supernatant/cell lysate), microvesicle shedding (by monitoring vesicle formation in cells loaded with Calcein-AM and then challenged with 1 mM ATP) and inflammatory cytokine production (by qPCR).

[3] = tested on: α-synuclein and phospho-Tau (p-Tau); assay: Immunohistochemistry for α-synuclein and p-Tau in SNc of 6-OHDA-lesioned rats; format: in vivo, rat; conditions: 1 mg/kg s.c., 3 months; p<0.05 vs. vehicle
Procedure: After 3 months, 10 randomly selected rats (5 from each group) were terminally anaesthetised. Blood and striatal tissue samples were taken and the posterior brain block containing the SNc was fixed by immersion in 4% paraformaldehyde in 0.1 M phosphate buffer (PB) for 24 hours. Following cryoprotection in 30% sucrose in 0.1M PB for 2-3 days and freezing the blocks in liquid nitrogen, samples were stored at −80° C. for α-synuclein and phospho-Tau (p-Tau) immunohistochemistry (IHC). This was repeated for 11 rats at 6 months (randomly selected from the surviving rats in both groups). Immunohistochemistry for α-synuclein and p-Tau was carried out. Brain samples containing the SNc region were double-immunostained for p-Tau (AT8) and α-synuclein. The number of positive cells for each single stain and the number of double-stained cells was manually counted for 6 sections per animal.

TNF-α = assay: Blood TNF-α levels in healthy human volunteers given tacrolimus capsule; format: in vivo
Procedure: A hard gelatine capsule was filled with the following composition:
One capsule as above containing 0.3 mg tacrolimus was administered daily to healthy human volunteers for three successive days. […] Similarly, no change in TNF-α levels occurred as a result of administering 0.6 mg daily of tacrolimus to healthy volunteers. The average trough level of tacrolimus (level after 24 hours of administration of each dose) observed was approximately 220 pg/ml.

[4] = in vivo
Procedure: Pharmacokinetic analysis was carried out by the Applicant. […] Therefore, even accounting for species differences in pharmacokinetics, preferred oral doses of tacrolimus in humans for the treatment of ALS would be expected to be below 1.3 mg/day and are likely to be below 0.55 mg/day.
Based on pharmacokinetic analysis, an oral tacrolimus dose of 2 mg/kg/day in the mouse is believed to correspond to a human oral dose of about 0.33-0.44 mg/day for a 70 kg person.

## C=CC[C@@H]1/C=C(\C)C[C@H](C)C[C@H](OC)[C@H]2O[C@@](O)(C(=O)C(=O)N3CCCC[C@H]3C(=O)O[C@H](/C(C)=C/[C@@H]3CC[C@@H](O)[C@H](OC)C3)[C@H](C)[C@@H](O)CC1=O)[C@H](C)C[C@@H]2OC [tacrolimus, Tacrolimus]
[1]
  expression of transcripts FET3, SOD1, SOD2 and COX9: upregulated
[2]; p<0.05 all concentrations vs. Aβ
  motor neuron neurite network: concentration-dependent increase
[2]; p<0.05 for 100 nM, 1 μM vs. Aβ
  motor neuron survival: concentration-dependent increase
TDP-43; 100 nM tacrolimus, 24 hours, control cells increased by 191%
  increase of TDP-43:MN ratio in response to Aβ1-42 insult relative to unchallenged cells: 35%
TDP-43; all 3 concentrations, 24 hours after Aβ1-42 insult
  TDP-43 levels normalised to motor neuron number (TDP-43:MN ratio): significantly reduced TDP-43 levels
Rat microglia; p<0.01 all concentrations, concentration-dependent
  LPS-induced oxidative stress (reactive oxygen species): significantly reduced
Rat microglia; p<0.01 for 100 nM and 1 μM
  LPS-induced increase in metabolic activity of glial cells: reduces this increase in a concentration-dependent manner
Rat microglia; p<0.01 for 1 μM, concentration-dependent
  LPS-induced microvesicle shedding: increase is reduced
[3]
  number of cells staining positively for p-Tau: lower counts of positive cells
  number of cells staining positively for α-synuclein: lower counts of positive cells
TNF-α; 0.3 mg capsule daily for three successive days
  blood TNF-α levels: No significant changes
TNF-α; 0.6 mg daily
  TNF-α levels: no change
[4]
  human oral dose corresponding to oral dose of 2 mg/kg/day in the mouse: 0.44-0.33
